Data as given in patent US6534035B1, “Methods of inhibiting clot formation” (President and Fellows of Harvard College, priority 1998, dated 2003).
Peptide text beside a SMILES is read from it. * marks the point of attachment. Biotin = O=C1N[C@H]2[C@H](CS[C@H]2CCCCC(=O)*)N1

Experiments:
[1] = target: T1, factor XIIIa-mediated crosslinking of α2AP to fibrin (Homo sapiens, UniProt P00488); assay: Inhibition of α2AP-fibrin crosslinking in plasma clots by α2AP polypeptide (immunoblot); type: biochemical
T1 construct: from tissue; host or cells: human plasma clotted with thrombin and calcium
T1 sequence (P00488 39-732 limits assumed): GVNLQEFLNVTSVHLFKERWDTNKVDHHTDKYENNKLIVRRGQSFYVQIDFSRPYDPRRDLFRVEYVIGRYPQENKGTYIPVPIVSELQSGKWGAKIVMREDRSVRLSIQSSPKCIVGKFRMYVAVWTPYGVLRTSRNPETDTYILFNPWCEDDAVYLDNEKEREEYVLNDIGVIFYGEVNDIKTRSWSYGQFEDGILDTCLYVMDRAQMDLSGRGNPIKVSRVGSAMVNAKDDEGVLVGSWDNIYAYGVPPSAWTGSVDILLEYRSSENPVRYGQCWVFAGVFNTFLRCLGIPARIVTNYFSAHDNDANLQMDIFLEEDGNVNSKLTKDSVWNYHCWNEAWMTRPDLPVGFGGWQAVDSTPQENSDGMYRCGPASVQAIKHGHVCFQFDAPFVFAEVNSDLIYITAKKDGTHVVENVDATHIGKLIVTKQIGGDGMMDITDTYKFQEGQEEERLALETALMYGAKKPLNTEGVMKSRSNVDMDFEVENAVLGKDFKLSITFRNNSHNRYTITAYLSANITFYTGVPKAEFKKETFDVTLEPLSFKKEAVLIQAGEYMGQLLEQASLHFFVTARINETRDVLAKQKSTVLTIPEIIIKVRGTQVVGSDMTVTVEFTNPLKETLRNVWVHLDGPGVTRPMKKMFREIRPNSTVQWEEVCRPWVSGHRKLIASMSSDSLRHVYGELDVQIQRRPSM
Experimental: To inhibit the crosslinking of α2AP to fibrin, a polypeptide spanning the crosslinking site on the amino terminus of α2AP (SEQ ID NO:2) was synthesized. The purity of the polypeptide was analyzed by high performance liquid chromatography, and its composition was verified by amino acid analysis on a Waters Picotag system. The α2AP polypeptide was then solubilized in 20 mM Tris-HCl and the pH was adjusted to 7.0. Various concentrations of polypeptide (7.5 μl, 0-5 mM final) were mixed with 20 μl of plasma, 1.25 μl of calcium chloride (0.4 mM), and 1.25 μof thrombin (10.0 units/ml) and clotted for 90 minutes at 37° C. as described above. The clots were solubilized and analyzed by immunoblotting as described above.

FXIIIa = target: T2, FXIIIa (Homo sapiens, UniProt P00488); assay: Dose-dependent crosslinking of α2AP13-24 into fibrin clots; type: biochemical; conditions: fibrin clots, compared to control clots
T2 construct: purchased American Diagnostica
T2 sequence (P00488 39-732 limits assumed): T1 sequence (P00488 39-732 limits assumed)
Experimental: Experiments were performed to determine how long FXIIIa in clots could crosslink various substrates such as human ^125I -α2AP, α2AP13-24 (SEQ ID NO:2), and 5-(biotinamido)pentylamine, into fibrin. In a typical experiment, clots were prepared (50 μl final volume) in duplicate by combining fibrinogen (2 mg/ml final), CaCl2 (2 mM final), buffer (Tris-buffered saline pH 7.4) and thrombin (1 U/ml) and incubating at 37° C. Synchronous with the addition of thrombin, or up to 240 minutes afterwards, the FXIIIa substrates 5-(biotinamido)pentylamine (0.5 mM final), ^125I -α2AP (70 μg/ml final), and α2AP13-24 (0 to 1 mM final) were mixed and added to the clot. […] Crosslinked ^125I-α2AP was detected and quantitated by phosphorimaging. Samples containing crosslinked α2AP13-24 and pentylamine substrates were electroblotted to PVDF membranes and detected by ^125I-streptavidin followed by phosphorimaging or by streptavidin-peroxidase followed by the developing agents 5-bromo-4-chloro-3-indolyl phosphate-nitro blue tetrazolium using methods known in the art. In experiments examining the effect of specific amino acid residues on the crosslinking of the α2AP13-24 peptide (SEQ ID NO:2) to fibrin, crosslinking was detected by immunoblotting with an anti-peptide antibody directed against this epitope followed by ^125I-protein A and phosphorimaging. […]

CC(C)C[C@H](NC(=O)[C@H](CC(C)C)NC(=O)[C@@H](NC(=O)[C@H](CC(C)C)NC(=O)[C@@H]1CCCN1C(=O)[C@H](CO)NC(=O)[C@@H](NC(=O)[C@H](CCC(N)=O)NC(=O)[C@H](CCC(=O)O)NC(=O)[C@H](CCC(N)=O)NC(=O)[C@@H](N)CC(N)=O)C(C)C)[C@@H](C)O)C(=O)N[C@@H](CCCCNC(=O)CCCC[C@@H]1SC[C@@H]2NC(=O)N[C@@H]21)C(=O)O [α2AP13-24, NQEQVSPLTLLK] (H-NQEQVSPLTLLK(Biotin)-OH)
α2AP-fibrin crosslinking ([1]; peptide concentrations of 1.5 mM and 3.0 mM): little α2AP crosslinking was visible | formation of fibrin γ-γ crosslinks ([1]; plasma clots formed with α2AP polypeptide): no apparent effect | peptide concentration giving progressively less α2AP-fibrin crosslinking ([1]; plasma clots, 90 minutes at 37° C.): ≥ 0.38 mM | lowest concentration at which crosslinking is seen (FXIIIa): 1.3 µM
